# Test results reported in paper PMC3419607, “Effect of Alpinia zerumbet components on antioxidant and skin diseases-related enzymes” (BMC Complementary and Alternative Medicine, 2012).
# Assays:
# [1] = molecular target: Collagenase from Clostridium histolyticum (ChC); experiment: Collagenase inhibition assay (FALGPA substrate); format: biochemical; details: plant parts: aqueous extract
# Procedure: Collagenase inhibition assay was performed by the method described previously which based on the hydrolysis of N-[3-(2-furyl)acryloyl]-Leu-Gly-Pro-Ala (FALGPA) by collagenase to produce FA-Leu and Gly-Pro-Ala. The assay was performed in 50 mM Tricine buffer (400 mM NaCl and 10 mM CaCl2, pH 7.5). Collagenase from Clostridium histolyticum (ChC) was dissolved in the buffer for use at an initial concentration of 0.8 units/ ml. The synthetic substrate, FALGPA, was dissolved in the Tricine buffer to 2 mM. Sample extracts were incubated with the enzyme in the buffer for 15 min before adding substrate to start reaction. The final reaction mixture (150 μl total volume) contained Tricine buffer, 0.8 mM of FALGPA, 0.1 units of ChC and 25 μg of test extracts. Controls were performed with water and methanol, while oleanolic acid as a positive control. After adding substrate for 20 min, collagenase activity was measured at 340 nm.
# The percentage inhibition for collagenase, elastase and hyaluronidase assays were calculated by:
# Enzyme inhibition activity (%) = (1– B/A) x 100, where A is the enzyme activity without sample and B is the activity in presence of the sample.
# [2] = DPPH radical scavenging activity assay; details: 30 min, 517 nm
# Procedure: The free radical scavenging activity was evaluated as described previously. Five hundred microlilters of the different concentration of test samples were mixed with 200 μl of 0.5 mM DPPH methanol solution and 500 μl of 0.1 M sodium acetate buffer (pH 5.5). After shaking, the mixture was incubated in the dark at room temperature for 30 min, and then the absorbance was measured at 517 nm. BHT was used as a positive control, while water and methanol were used as controls for calculation.
# (§1) The ability of the extracts to scavenge DPPH, ABTS^·+, PMS-NADH radicals were calculated by following formula:
# (§2) Radical scavenging (%) = [(O.Dcontrol – O.Dsample)/ O.Dcontrol] x 100,
# (§3) where O.D is the optical density in the presence or absence of the samples.
# [3] = PMS-NADH system superoxide-radical scavenging assay; details: 560 nm
# Procedure: The superoxide scavenging activity was assayed following the method of Lau et al. with minor modifications. The reaction mixture contained 0.5 ml of 105 μM NADH, 0.5 ml of 66 μM NBT dissolved in 0.1 M phosphate buffer (pH 7.4) and 0.1 ml sample in different concentrations. The reaction was initiated by adding 0.5 ml of 30 μM PMS into the reaction mixture. Methanol and water were used as a control and BHT as a positive control. After 10 min, the reaction mixture reached to stable color, measurement of absorbance was conducted at 560 nm.
# as §1, §2, §3
# [4] = Total antioxidant activity (ABTS) assay; details: ABTS radical scavenging, 6 min, 734 nm
# Procedure: The total antioxidant activity of test sample was measured with modified method as described previously. ABTS^·+ solution was generated by mixing 7 mM ABTS and 2.45 mM potassium persulfate (K2S2O8) in water, which was placed in the dark at room temperature for 16 h to give the complete oxidation of ABTS. Before using, the ABTS^·+ solution was diluted with water to get an absorbance of 0.700 ± 0.050 at 734 nm. Briefly, 1 ml of ABTS^·+ solution was added to 30 μl of test samples and mixed thoroughly. BHT was used as positive control and the sample solutions were used as controls. The reactive mixture was incubated at room temperature for 6 min and the absorbance was immediately recorded at 734 nm.
# as §1, §2, §3
# [5] = molecular target: T1, hyaluronidase from bovine test (Bos taurus, UniProt Q2YDK3); experiment: Hyaluronidase inhibition assay; format: biochemical; details: plant parts: aqueous extract
# T1 construct: from tissue; host or cells: bovine testes (printed 'bovine test')
# T1 sequence (Q2YDK3 36-553): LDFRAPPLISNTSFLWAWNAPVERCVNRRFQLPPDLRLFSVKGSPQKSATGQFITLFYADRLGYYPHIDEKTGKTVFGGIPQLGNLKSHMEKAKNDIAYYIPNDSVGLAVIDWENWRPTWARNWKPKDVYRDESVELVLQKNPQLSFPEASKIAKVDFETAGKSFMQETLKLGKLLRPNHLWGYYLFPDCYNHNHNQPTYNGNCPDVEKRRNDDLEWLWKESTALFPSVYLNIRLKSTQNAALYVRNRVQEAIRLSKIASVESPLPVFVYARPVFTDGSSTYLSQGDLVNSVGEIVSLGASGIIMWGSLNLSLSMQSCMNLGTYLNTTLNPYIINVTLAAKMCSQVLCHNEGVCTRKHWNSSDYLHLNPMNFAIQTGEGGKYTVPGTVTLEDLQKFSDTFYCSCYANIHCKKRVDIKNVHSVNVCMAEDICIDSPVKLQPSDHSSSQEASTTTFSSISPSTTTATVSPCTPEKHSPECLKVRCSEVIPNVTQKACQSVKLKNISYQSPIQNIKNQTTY
# [6] = molecular target: T2, elastase from porcine pancreas (Sus scrofa, UniProt P00772); experiment: Elastase inhibition assay (SANA substrate); format: biochemical; details: plant parts: aqueous extract
# T2 construct: from tissue; host or cells: porcine pancreas
# T2 sequence (P00772 27-266): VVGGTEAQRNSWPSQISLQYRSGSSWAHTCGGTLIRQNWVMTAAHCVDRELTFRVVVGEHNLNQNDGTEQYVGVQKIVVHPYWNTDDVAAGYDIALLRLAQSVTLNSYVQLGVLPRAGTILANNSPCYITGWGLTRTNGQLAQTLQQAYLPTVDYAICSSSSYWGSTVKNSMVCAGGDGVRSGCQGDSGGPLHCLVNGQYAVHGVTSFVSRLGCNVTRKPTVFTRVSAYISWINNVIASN
# Source text: The inhibitory activity determined the intensity of color released during cleavage of SANA by the action of elastase.
Structure (SMILES),IC50 collagenase inhibition [1] [µg/mL],Inhibitory effect (IC50) DPPH [2],Inhibitory effect (IC50) PMS-NADH [3],Inhibitory effect (IC50) ABTS [4],IC50 [5] [µM],IC50 [6] [µM]
"CC1(C)CC[C@]2(C(=O)O)CC[C@]3(C)C(=CC[C@@H]4[C@@]5(C)CC[C@H](O)C(C)(C)[C@@H]5CC[C@]43C)[C@@H]2C1 [oleanolic acid, reference compound]",17.95 ± 0.23,,,,,
"Cc1cc(C(C)(C)C)c(O)c(C(C)(C)C)c1 [BHT, tert-butyl hydroxytoluene, reference compound]",,11.74 ± 0.15 a ^1 μg/mL,24.80 ± 0.98 a μg/mL,14.26 ± 0.16 a μg/mL,,
"COc1cc(/C=C/c2ccccc2)oc(=O)c1 [DK, 5,6-dehydrokawain]",24.93 ± 0.97,122.14 ± 1.40 µg/mL,127.78 ± 4.75 µg/mL,110.08 ± 3.34 µg/mL,85.3,85
